Source: US4012345A, “Des-(Ala^1, Gly^2), Met^11 -SRIF and intermediates” (American Home Products Corporation, priority 1976, dated 1977)
Positions of bridges follow the written chain, without caps; N, C: chain ends. Residues, ends and D or L forms follow the SMILES beside them.

Legend:
[1] = test system: growth hormone; test: Arginine-stimulated plasma growth hormone in Nembutal-anesthetized rats (radioimmunoassay); type: in vivo, albino male rats; details: *p < 0.01
Description: (§1) The in vivo activity of the compounds of this invention was established by subjecting des-(Ala^1, Gly2), Met^11 -Somatostatin, as a representative compound of the invention, to the following standard test procedure: Three groups of ten albino male rats were arranged to provide a control group, a group for observation of Somatostatin activity as the standard and a group for the study of the test compound des-(Ala^1, Gly^2), Met^11 -Somatostatin. Nembutal (50 mg/kg) was injected intraperitoneally into each rat. Fifteen minutes later a subcutaneous injection of the test compound, somatostatin and physiological saline (control) was administered separately to each of the three groups of rats. Ten minutes later 0.5 milliliters of arginine (300 mg/ml, pH 7.2) was injected into the rats heart. The rats were decapitated five minutes later and their blood was collected in Trasylol -EDTA. Aliquot samples were radioimmunoassayed for growth hormone and insulin.

[2] = test system: insulin; test: Arginine-stimulated plasma insulin in Nembutal-anesthetized rats (radioimmunoassay); type: in vivo, albino male rats
Description: as §1

[3] = test system: somatotropin; details: Brazeau et al., Science, 179 pp 77-79 (1973); cited from earlier work

Compound	GH ([1]; Experiment 2, dose 100 μg/kg subcutaneous, control 176 ± 29) [ng/mL]	GH ([1]; Experiment 3, dose 1500 μg/kg subcutaneous, control 123 ± 16) [ng/mL]	Insulin ([2]; Experiment 1, dose 400 μg/kg subcutaneous, control 172 ± 11, *p < 0.01) [μU/ml]	Insulin ([2]; Experiment 3, dose 1500 μg/kg subcutaneous, control 206 ± 19) [μU/ml]	inhibition of secretion of somatotropin (growth hormone) [3]
CSCC[C@@H]1NC(=O)[C@H]([C@@H](C)O)NC(=O)[C@H](CCCCN)NC(=O)[C@H](Cc2c[nH]c3ccccc23)NC(=O)[C@H](Cc2ccccc2)NC(=O)[C@H](Cc2ccccc2)NC(=O)[C@H](CC(N)=O)NC(=O)[C@H](CCCCN)NC(=O)[C@@H](N)CSSC[C@@H](C(=O)O)NC(=O)[C@H](CO)NC(=O)[C@H]([C@@H](C)O)NC1=O [Example 3, L-Cysteinyl-L-lysyl-L-asparaginyl-L-phenylalanyl-L-phenylalanyl-L-tryptophyl-L-lysyl-L-threonyl-L-methionyl-L-threonyl-L-seryl-L-cysteine (1-12) disulfide] (H-CKNFFWKTMTSC-OH; disulfide 1-12)	72 ± 12	42 ± 10	143 ± 13	128 ± 13	–
H-Ala-Gly-Cys-Lys-Asn-Phe-Phe-Trp-Lys-Thr-Phe-Thr-Ser-Cys-OH (H-AGCKNFFWKTFTSC-OH; ends and bridges not checked) [linear form of somatostatin]	–	–	–	–	same biological activity as somatostatin obtained from a natural source
